{"source": "paper PMC4109680", "about": "“Identification and Preclinical Pharmacology of the γ-Secretase Modulator BMS-869780” (International Journal of Alzheimer's Disease, 2014)", "key": {"brain Aβ1-42 and Aβ1-40": {"tested_on": "brain Aβ1-42 and Aβ1-40", "assay": "Rat 4-day repeat dose, residual brain Aβ by ELISA and immunodepletion", "format": "in vivo", "experimental": "Figure 7 BMS-869780 dose response and evaluation of residual Aβ levels in rat brain. (a) Groups of rats received intraperitoneal (IP) injections of vehicle or BMS-869780 at doses of 100, 30, 10, 3, 1, and 0.3 mg/kg. Additional rats were dosed with GSI BMS-698861 at 30 mg/kg as a positive control for Aβ-lowering. Group sizes were seven rats for each dose of BMS-869780 and 14 rats for vehicle and GSI dose groups. Brain and plasma were harvested 5 hours after dosing. Brain Aβ1-42 (green), brain Aβ1-40 (blue), brain Aβ1-x (black), and plasma Aβ1-40 (red) were determined. Values are expressed as % relative to vehicle group mean. Whiskers represent standard error. ⊗Aβ1-x was not determined in the groups dosed at 3, 1, and 0.3 mg/kg. (b) Brain Aβ1-40 was plotted against brain Aβ1-42 for each rat dosed with BMS-869780 (black ▼) and for each rat dosed with vehicle (grey ●). Values are expressed as % relative to vehicle group mean. Whiskers represent standard error. […] The respective 95% confidence intervals were 618–1053 nM, 704–1264 nM, and 44–158 nM. (d) Rats were dosed once daily with BMS-869780 for 4 days at 10 and 100 mg/kg or vehicle, plasma, and brain samples were taken 5 hours after the last dose, and immunodepletion of brain extracts was carried out prior to Aβ1-42 ELISA assays. […] After immunodepletion, Aβ1-42 was assayed by ELISA. (e) Same as described in (d), except that Aβ1-40 ELISA was carried out following the immunodepletion.\nFor immunodepletion of rat brain Aβ, solid phase extracts were pooled within treatment groups. The pools were divided into equal aliquots and incubated with or without monoclonals 565, TSD, 4G8, or 6E10 (10 μg) at 4°C overnight. Protein G beads (50 μL; EZview, Sigma) were added, and incubation was continued with agitation for 1 hour. The beads were removed by centrifugation, and Aβ1-40 and Aβ1-42 in the unbound fraction were quantified by ELISA, as described above.\nAll experimental procedures with animals followed National Institutes of Health guidelines and were authorized by and in compliance with policies of the Bristol-Myers Squibb Animal Use and Care Committee. Mice and rats were housed with a 6:00 AM to 6:00 PM light/dark cycle and allowed free access to food and water. For 3xTg mice, BMS-869780 was dosed in three-month-old females by oral gavage at 6 mL/kg in vehicle consisting of 84% polyethylene glycol average molecular weight of 400 (PEG-400), 15% EtOH, and 1% Tween-80 (w/w/w). The compound was dissolved in EtOH and then diluted with PEG-400 and Tween, after which the vial was sealed, vortexed, and sonicated at 56°C for 1 hour. Animals were euthanized by asphyxiation in CO2. Blood was collected by cardiac puncture and placed into ethylene-diaminetetraacetic acid microtainer tubes for the preparation of plasma. The cerebellum was collected for the determination of compound concentration, and the remaining brain was separated into left and right halves before freezing in liquid nitrogen. For the rat time course study, 8- to 12-week-old female Sprague-Dawley rats were obtained from Charles River Laboratories (Wilmington, MA), BMS-869780 was dosed orally at 4 mL/kg, and brain and plasma samples were collected as described for the 3xTg mice. For the four day repeat dose rat study, BMS-869780 was given by oral gavage in vehicle consisting of PEG-400, PEG-200, D-α-tocopheryl polyethylene glycol succinate, Solutol HS 15, in the ratio 80 : 10 : 5 : 5 (w/w/w/w). Methods for the pharmacokinetics studies in rat, dog, and monkey are described below."}, "[1]": {"assay": "Prediction of human PK and dose by allometric scaling combined with rat PK/PD", "experimental": "Interspecies allometric scaling adjusted for brain weight was used to predict human CLTp, while simple allometric scaling was used to predict Vss. Briefly, the Vss and brain weight adjusted CLTp values from nonclinical species were plotted against body weight on a log-log scale to yield estimates of Vss and CLTp × brain weight in humans. The estimated CLTp × brain weight for human was adjusted for the brain weight of humans to yield a predicted CLTp. […] Noncompartmental analysis was performed using WinNonlin software (version 5.0; Pharsight Corporation, Mountain View, CA). The k a for each species was obtained from the IV and PO (nanosuspensions) of rat, dog, and cynomolgus monkey by deconvolution of plasma concentration-time data using Kinetica (version 5.0; Seattle, WA). The bioavailability was estimated from the nanosuspensions from rat, dog, and cynomolgus monkeys. The average k a and F, along with the Vss and CLTp from allometric scaling, were incorporated into a two-compartment model to predict the human oral plasma concentration-time profiles."}, "pregnane-X-receptor": {"target": "T1, pregnane-X-receptor (Homo sapiens, UniProt O75469)", "T1 construct": "host or cells: HepG2", "T1 sequence (O75469 whole entry)": "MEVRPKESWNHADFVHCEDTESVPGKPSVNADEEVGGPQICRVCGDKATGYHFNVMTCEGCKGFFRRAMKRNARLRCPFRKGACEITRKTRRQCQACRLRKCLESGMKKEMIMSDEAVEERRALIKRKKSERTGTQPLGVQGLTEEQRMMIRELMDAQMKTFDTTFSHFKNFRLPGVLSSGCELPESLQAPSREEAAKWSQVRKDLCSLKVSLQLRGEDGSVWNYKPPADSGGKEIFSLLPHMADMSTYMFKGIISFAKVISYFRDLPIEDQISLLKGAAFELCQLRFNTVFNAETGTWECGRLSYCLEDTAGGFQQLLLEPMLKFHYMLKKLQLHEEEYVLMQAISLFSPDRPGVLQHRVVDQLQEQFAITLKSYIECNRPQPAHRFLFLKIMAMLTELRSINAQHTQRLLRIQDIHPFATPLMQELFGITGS", "assay": "Pregnane-X-receptor transactivation assay (PXR-TA), luciferase reporter in HepG2 cells", "format": "cell-based", "experimental": "Determination of IC50 values for inhibition of secreted alkaline phosphatase (SEAP) was carried out using an H4 cell line stably expressing SEAP. Cells were treated overnight with compounds in 384-well format, and SEAP accumulation in the culture media was quantified using a chemiluminescence substrate. The pregnane-X-receptor transactivation assay (PXR-TA) was based on the methods of Goodwin et al. as described previously. In the 4-day rat study with BMS-869780, tissues were fixed in 10% neutral buffered formalin, embedded in paraffin, sectioned, stained with hematoxylin and eosin, and examined by light microscopy.\nFigure 10 BMS-869780 caused PXR activation in vitro and lipidosis in rat liver. (a) PXR activation in the presence of BMS-869780 was evaluated in HepG2 cell cultures using a luciferase transcriptional reporter construct (●), or by assay of CYP3A4 mRNA levels in primary human hepatocyte (PHH) cultures from two individual donors (▲ and ▼). Activation in both assays is expressed as % relative to activation in the presence of rifampicin, 10 μM, in parallel cultures. (b) Liver section from vehicle-dosed rats. (c) Liver section from rats given 4 daily doses of BMS-869780 at 100 mg/kg."}, "brain Aβ1-42": {"tested_on": "brain Aβ1-42", "assay": "Rat time course PK/PD, oral dose, indirect response model", "format": "in vivo", "settings": "Rat 3 mg/kg PO solution (predicted steady state after 3 daily doses)"}, "[2]": {"settings": "averaged across depleted samples in both dose groups"}, "[3]": {"settings": "four daily doses, 10 and 100 mg/kg, 5 hours after last dose"}, "[4]": {"settings": "Human 700 mg PO suspension (predicted steady state)"}}, "data": [{"smiles": "COc1cc(Nc2nc3n(n2)CCCC[C@H]3c2ccc(F)cc2)ccc1-n1cnc(Cl)c1", "note": "[BMS-869780]", "values": [{"measurement": "residual signal for Aβ1-40 after immunodepletion", "setting": "brain Aβ1-42 and Aβ1-40; [2]", "result": 4, "unit": "%"}, {"measurement": "residual signal for Aβ1-42 after immunodepletion", "setting": "brain Aβ1-42 and Aβ1-40; [2]", "result": 16, "unit": "%"}, {"measurement": "residual pool of Aβ1-40", "setting": "brain Aβ1-42 and Aβ1-40; four daily doses", "result": "~7", "unit": "%"}, {"measurement": "residual pool of Aβ1-42", "setting": "brain Aβ1-42 and Aβ1-40; four daily doses", "result": "ca. 15%"}, {"measurement": "residual ELISA signal for Aβ1-40", "setting": "brain Aβ1-42 and Aβ1-40; [3]", "result": 19, "unit": "%"}, {"measurement": "residual ELISA signal for Aβ1-42", "setting": "brain Aβ1-42 and Aβ1-40; [3]", "result": 31, "unit": "%"}, {"measurement": "Brain Aβ ABEC 24 hr Aβ1-42", "setting": "[1]; [4]", "result": 25, "unit": "%"}, {"measurement": "Plasma AUC 0–24 hr", "setting": "[1]; [4]", "result": 17.8, "unit": "µM·h"}, {"measurement": "Cmax", "setting": "[1]; plasma, oral, Human 700 mg once daily (predicted steady state)", "result": 1.27, "unit": "µM"}, {"measurement": "AUC(0-t)", "setting": "[1]; plasma, Human 700 mg PO suspension (predicted steady state), read-out: Plasma AUC 0–24 hr", "result": 17.6, "unit": "µM·h"}, {"measurement": "activity in PXR-TA", "setting": "pregnane-X-receptor", "result": "robust activity"}, {"measurement": "concentrations at which PXR transcription was activated", "setting": "pregnane-X-receptor; HepG2 luciferase reporter, relative to rifampicin 10 μM", "result": "≥ 0.3", "unit": "µM"}, {"measurement": "Brain Aβ ABEC 24 hr Aβ1-42", "setting": "brain Aβ1-42", "result": 26.9, "unit": "%"}, {"measurement": "Plasma AUC 0–24 hr", "setting": "brain Aβ1-42", "result": 18.6, "unit": "µM·h"}]}]}
